Publication PMC5761851, “Application of a phenotypic drug discovery strategy to identify biological and chemical starting points for inhibition of TSLP production in lung epithelial cells” (PLoS ONE, 2018)
Values joined by “and” are separate entries in the source; they are usually repeats but may differ in a detail not shown here. Equal values may be shown once. Read-outs that look alike come from different tables or passages of the source.

Key:
[1] = tested on: TSLP production in NHBE cells; assay: TSLP HTRF assay (TSLP production in poly I:C / IL-4 stimulated NHBE cells); format: cell-based, human
Experimental: For dose response curves determinations, stocks of test compounds at a concentration of 1.33x10^-3 M in DMSO were sequentially diluted at 1:4 dilution steps before further 1/50 dilution in BEBM medium containing 1x ITS and 0.1% BSA. For the highest 4 μM concentration test compounds were resuspended in DMSO at a concentration of 2.5x10^-3 M and diluted 1/25 in BEBM medium containing 1x ITS and 0.1% BSA before adding 1 μl to the wells containing the cells.
All subsequent steps were automated using a Sciclone® G3 workstation (Perkin Elmer) with a Twister™ II robot (Perkin Elmer). […] 1 μl of test compound solution prepared at 25x concentration was added to the wells containing NHBE cells. The plates were then incubated during 90 minutes at 37°C, 5% CO2, 90% humidity before adding poly I:C (Invivogen HMW Tirl-pic-5) and human IL-4 (Peprotech 200–04) stimulus in 4 μl of BEBM medium containing 1x ITS, 0.1% BSA and 0.1% DMSO using a Multidrop™. […] Cells were then incubated for 24h in the presence of test compounds and stimulus at 37°C, 5% CO2 and 90% humidity conditions. After the 24h incubation period the plates were transferred to a CyBi®-Well platform (CyBio AG) to collect 10 μl of the supernatants which were transferred to a new plate. TSLP levels in the supernatant were determined using a homogeneous Time-Resolved Fluorescence (HTRF) assay custom developed by Cisbio. The assay was based in the use of a donor dye (europium cryptate) coupled to a monoclonal anti-TSLP antibody and an acceptor dye (d2) coupled to a second polyclonal anti-TSLP antibody. […] 10 μl of the resulting solution was then used to determine TSLP levels as described above.
The standard curve was built with eight points prepared in ITS/BSA in BEBM medium without supplements, starting at 700 pg/ml and diluted 1:2, with medium alone being zero TSLP. Fitting model corresponded to equation 100 of Excel fit software. Data from the primary phenotypic screen was visualized using Vortex (Dotmatics). […] For compound selection the maximum inhibition of the two individual duplicate values was taken into account. Dose response confirmation was performed at single point in the 2 donors tested. 9 point curves were run starting at 4 μM concentration by doing serial 1:4 dilutions in cells derived from both donors.

CHO-K1 cells = assay: CHO-K1 viability (ATPlite); format: cell-based
Experimental: The viability of NHBE and CHO-K1 cells was quantified using ATP as an indirect read out of the potential cytotoxicity of the compounds. […] Plates were shaken and covered with aluminium foil for 25 min. Luminescence was measured in an Envision reader (Perkin Elmer). Evaluation of viability in CHO-K1 cells was used as an internal compound cytotoxicity standard across cellular assays. […] The plates were incubated for 24 h at 37°C in 5% CO2. After the incubation period, the culture medium was removed and washed with 100 μl of DPBS. Test compounds were dissolved and serially diluted in 100% DMSO. A final 1/100 dilution of each concentration was performed using F12 culture medium with 0.5% FBS. A volume of 100 μl culture medium containing the compounds or 1% DMSO (for control wells) was added to the wells containing the cells and the plate was incubated again 24h. After 24h of compound exposure, cells were washed with DPBS. Then, 100 μl of PBS were added, followed by the addition of 100 μl of ATPlite™ reagent. The plate was shaken for 25 minutes using a microtiter plate shaker. Luminescence was measured using a Luminoskan Ascent luminometer (Thermo Fisher Scientific).
For CHO-K1 viability assays, a standard curve of cells was included in the plate. Luminescence values versus cell number were plotted and the data adjusted to a linear equation. Luminescence values of the samples were interpolated to obtain number of cells. IC50 values were obtained by non-linear regression using Activity Base software (IDBS) and a four-parameter log equation.

[2] = tested on: TSLP mRNA levels in NHBE cells; assay: TSLP mRNA real-time PCR (qPCR) in NHBE cells; format: cell-based, human; design: TSLP mRNA upregulation (% versus control) / % Inhibition of mRNA: dose or concentration left out as unconfirmed; conditions: for % Inhibition of mRNA at [4 μM] ± SD: NHBE donor #1, 6 h stimulation; for % Inhibition of mRNA: individual values, donor #1
Syk = Syk (Homo sapiens, UniProt P43405); assay: Enzymatic Syk kinase activity assay; format: biochemical
LAD2 cells degranulation = assay: Syk dependent LAD2 cells degranulation; format: cell-based, human
Experimental: Normal human bronchial epithelial cells (NHBE) (Lonza CC-2540,) corresponding to 2 different lots derived from 2 human healthy donors, henceforth referred to as donors #1 and #2, were purchased from Lonza, who provided the cells after obtaining permission for use in research applications by informed consent. Cells were cultured in 5% CO2 at 37°C according to the manufacturer´s instructions using Lonza´s Bronchial Epithelial Basal Medium (BEBM) (CC-3171) supplemented with Lonza´s Bronchial Epithelial Cell Growth Medium bullet kit (BEGM) (CC-4175), and grown in collagen coated T-75 and T-175 tissue culture flasks as required (Becton Dickinson 356485 and 356487). Subculturing after trypsinization and amplification was performed using Lonza´s reagent pack subculture reagents (CC-5034) following the manufacturer´s instructions. CHO-K1 and THP-1 cells were purchased from the ATCC through LGC standards (ATCC CCL-61 and TIB-202 respectively). The LAD2 cell line is a human mast cell line established at the National Institutes of Health (Bethesda, Maryland, U.S.).
Quantification of enzymatic p38 activity and p38-dependent TNF production in THP-1 cells was performed as previously described. Enzymatic Syk kinase activity assays and Syk dependent LAD2 cells degranulation assays were performed as previously described. PI3Kδ dependent pAkt phosphorylation in macrophage colony-stimulating factor (M-CSF) stimulated THP-1 cells was measured as previously described.

[3] = Homo sapiens, NHBE, 24 h, NHBE cells donor #1, poly I:C / IL-4, 24h, geometric mean, read-out: Inhibition of TSLP protein production (IC50, μM) (95% CI)
[4] = individual values, donor #1, read-out: Inhibition of TSLP production in NHBE (IC50)
[5] = Cricetulus griseus, CHO-K1, geometric mean, read-out: Inhibition of CHO viability (IC50, μM) (95% CI)
[6] = individual values, read-out: Inhibition of CHO viability (IC50 mM)
[7] = individual values, read-out: Biochemical activity (IC50, mM) (Syk)
[8] = Homo sapiens, LAD2, geometric mean, read-out: Activity in reference cell based assay (IC50, μM) (95% CI) LAD2 cells degranulation
[9] = Homo sapiens, LAD2, individual values, read-out: Cellular activity (IC50, mM) LAD2 cells degranulation
[10] = individual values, read-out: Cellular activity (IC50, mM) LAD2 cells degranulation
[11] = geometric mean, read-out: Activity in reference biochemical assay (IC50, μM) (95% CI) Syk

SMILES	IC50 [1, 3] [µM]	IC50 [1, 4]	IC50 (Syk; [7])	IC50 (LAD2 cells degranulation; [8]) [µM]	IC50 (LAD2 cells degranulation; [9]) [µM]	IC50 (LAD2 cells degranulation; [10]) [µM]	IC50 (Syk; [11]) [nM]	other results
COc1ccc(-c2ccc3c(N4CCOC[C@@H]4C)nc(N4CCOC[C@@H]4C)nc3n2)cc1CO [AZD8055, reference compound]	0.002	0.00097 µM and 0.00482 µM and 0.00467 µM						Inhibition of CHO viability % Inhibition ± SD at 3.12 μM (CHO-K1 cells): 20.47% ± 4.6 (n = 4)
COC(=O)Nc1nc2ccc(C(=O)c3cccs3)cc2[nH]1 [Nocodazole, reference compound]	0.9	1.23 µM and 0.512 µM and 1.16 µM						% Inhibition of mRNA at [4 μM] ± SD [2]: 84.62 ± 1.76%; % Inhibition of mRNA [2]: 83.366% and 85.867%
C[C@@H]1O[C@@H](O[C@H]2C[C@@H](O)[C@]3(CO)[C@H]4[C@H](O)C[C@]5(C)[C@@H](C6=CC(=O)OC6)CC[C@]5(O)[C@@H]4CC[C@]3(O)C2)[C@H](O)[C@H](O)[C@H]1O [Ouabain, reference compound]	0.016	0.013 µM and 0.014 µM						IC50 ([1]; Homo sapiens, NHBE, individual values, donor #1, read-out: Inhibition of TSLP production in NHBE (IC50)): 0.022 µM; % Inhibition of mRNA at [4 μM] ± SD [2]: 94.64 ± 0.33%; % Inhibition of mRNA [2]: 94.409% and 94.877%
C[C@@H]1CCN(C(=O)CC#N)C[C@@H]1N(C)c1ncnc2[nH]ccc12 [Tofacitinib, reference compound]								Inhibition of CHO viability at [25 μM] % Inhibition ± SD (CHO-K1 cells; 25 μM): 0.37 ± 4.3%
COc1ccc(N(C)c2nc(NC/C=C(\C)CCC=C(C)C)nc3ccccc23)cc1 [compound 6]	0.101	0.121 µM and 0.062 µM and 0.141 µM						% Inhibition of mRNA at [4 μM] ± SD [2]: 95.04 ± 0.77%; % Inhibition of mRNA [2]: 95.589% and 94.492%
CCn1cc(-c2cccc(-c3cnc(N)c(C(=O)NC4C5CC6CC4CC(O)(C6)C5)n3)c2)cn1 (stereo not shown) [compound 9]	0.302	0.584 µM and 0.2 µM and 0.237 µM	24 nM and 22 nM	0.182	0.183	0.181		IC50 (CHO-K1 cells; [5]): 7 µM; IC50 (CHO-K1 cells; [6]): 8.21 µM and 7.68 µM and 4.44 µM and 9.37 µM and 6.42 µM
COc1cc(-c2cnn(C)c2)cc(-c2cnc(N)c(C(=O)N[C@@H]3[C@@H]4C[C@@H]5C[C@H]3C[C@@](O)(C5)C4)n2)c1 [compound 10]	0.277	0.584 µM and 0.198 µM and 0.184 µM	33.8 nM and 33.1 nM	0.118	0.124	0.113	33	Inhibition of CHO viability % Inhibition ± SD at 3.75 μM (CHO-K1 cells): 35.3 % ± 5.5; Inhibition of CHO viability % at 3.75 micromolar (CHO-K1 cells; individual values): 42.5% and 36.2% and 31.8% and 30%
Nc1ncc(-c2cccc(-c3cccnc3)c2)nc1C(=O)NC1C2CC3CC1CC(O)(C3)C2 (stereo not shown) [compound 11]	1.14	1.45 µM and 1.79 µM and 0.56 µM	62 nM and 71 nM	0.26	0.313	0.217	66	IC50 (CHO-K1 cells; [5]): 7.85 µM; IC50 (CHO-K1 cells; Cricetulus griseus, CHO-K1, individual values, read-out: Inhibition of CHO viability (IC50 mM)): 8.33 µM; IC50 (CHO-K1 cells; [6]): 8.4 µM and 7.19 µM and 7.56 µM
Cn1cc(-c2cccc(-c3cnc(N)c(C(=O)NC4C5CC6CC4CC(O)(C6)C5)n3)c2)cn1 (stereo not shown) [compound 12]	0.253	0.376 µM and 0.251 µM and 0.172 µM	25 nM and 21 nM	0.118	0.107	0.131	22	Inhibition of CHO viability % Inhibition ± SD at 3.75 μM (CHO-K1 cells): 19 % ± 1; Inhibition of CHO viability % at 3.75 micromolar (CHO-K1 cells; individual values): 20.7% and 17.8% and 20.2% and 20.8%
Nc1ncc(-c2ccc3[nH]ncc3c2)nc1C(=O)NC1C2CC3CC1CC(O)(C3)C2 (stereo not shown) [compound 13]	0.19	0.365 µM and 0.164 µM and 0.116 µM	397 nM and 280 nM				334	Inhibition of CHO viability % Inhibition ± SD at 3.12 μM (CHO-K1 cells): 36 % ± 3; Inhibition of CHO viability % at 3.12 micromolar (CHO-K1 cells; individual values): 39.6% and 37.7% and 35.3% and 31.4%
Nc1ncc(-c2ccc3cn[nH]c3c2)nc1C(=O)NC1C2CC3CC1CC(O)(C3)C2 (stereo not shown) [compound 14]	0.359	0.237 µM and 0.804 µM and 0.244 µM	209 nM and 159 nM	0.403	0.409	0.398		Inhibition of CHO viability % Inhibition ± SD at 3.75 μM (CHO-K1 cells): 42 % ± 10; Inhibition of CHO viability % at 3.75 micromolar (CHO-K1 cells; individual values): 51.55% and 51.37% and 30.13% and 37.95%
COc1ccc(N(C)c2nc(C)nc3ccccc23)cc1 [compound 16]	0.007							IC50 (CHO-K1 cells; [5]): 28.8 µM; Inhibition of CHO viability % at 3.12 micromolar (CHO-K1 cells; individual values): 1.13% and 6.28% and -14.28% and -12.18%
